Like-named read-outs stand apart in the source and are kept apart here.
How the values were obtained:
[1] = molecular target: DCN2 (DCUND2) protein PONY domain (Homo sapiens (Human), UniProt Q6PH85); assay: DCN2 TR-FRET assay, measurement of Kinact/KI; assay type: binding
Method: A TR-FRET Assay was performed to evaluate the ability of the compounds to bind DCN-2. The time resolved—Forster's resonance energy transfer (TR-FRET) assay was designed following the protocol established in (Scott et al., Nat Chem Biol. 2017 August; 13(8): 850-857). A recombinant form of the DCN2 (DCUND2) protein PONY domain was produced using an E. coli expression system at Viva Biotech China. The DCN2 protein was biotinylated (EZ sulfo-NHS-LC-biotin; Thermofisher) for labeling with 2.5 nM streptavidin terbium (Tb) cryptate in the reaction. The probe was changed to a non-covalent DCN1 inhibitor labeled with carboxyfluorescein (FAM; Zhou el al., Nat Commun. 2017; 8: 1150). Buffer conditions were modified to enhance protein stability by replacing TritonX with 0.05% Tween20 and increasing NaCl to 200 mM. […] The Kinact and KI measurements were taken to allow for continuous reads over 24 hrs. Plates were read every 5 min up to 1 hr, every 15 min up to 5 hr, and every hour up to 10 hours. Kinact and KI were calculated based on the following equations (Krippendorff B F, et al. Mechanism-based inhibition: deriving K(I) and k(inact) directly from time-dependent IC(50) values. J BiomolScreen. 2009; Mons E et al. A Comprehensive Guide for Assessing Covalent Inhibition in Enzymatic Assays Illustrated with Kinetic Simulations. […] The Kinact and KI values could be estimated from the tight curves of the IC50 values over time. [formula]

[2] = molecular target: T1, DCN1 (DCUND1) protein PONY domain (Homo sapiens (Human), UniProt Q96GG9); assay: TR-FRET assay (binding to DCN-1, displacement of FAM-labeled probe)
T1 sequence (Q96GG9 60-248): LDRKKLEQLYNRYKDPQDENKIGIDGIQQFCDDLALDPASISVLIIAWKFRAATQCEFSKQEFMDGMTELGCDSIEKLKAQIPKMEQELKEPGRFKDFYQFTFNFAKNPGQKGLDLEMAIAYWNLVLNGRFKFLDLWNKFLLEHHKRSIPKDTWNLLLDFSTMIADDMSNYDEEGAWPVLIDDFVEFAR
Method in brief: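 Compounds read at 1, 5 and 24 h, 0.1% final DMSO, by TR-FRET between terbium-streptavidin on biotinylated DCN1 PONY domain (E. coli) and a FAM-tagged non-covalent inhibitor probe. Two setups used, 5 nM protein with 20 nM labelled probe, or 0.31 nM protein with 100 nM labelled plus 800 nM unlabelled probe; buffer had TritonX and 200 mM NaCl. % activity relative to high (with probe) and low (without probe) controls.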

[3] = molecular target: T1, DCN1 (DCUND1) protein PONY domain; assay: Off-rate measurement of reversible covalent molecules (jump dilution TR-FRET with Cy5 probe); conditions: binding mode from off-rate measurement
Method: A TR-FRET assay was performed to classify the compounds as an irreversible covalent binder, a reversible covalent binder or a reversible binder.
An assay to measure the off-rate of reversible covalent molecules was developed. A typical covalent compound is assumed to stay bound to a protein for at least the life of that protein in the cell. In reality, there is a range of how long a covalent compounds remains bound before a reverse reaction takes place. Thus, some covalent bonds can be labeled as reversible as their reverse reaction takes place in a measurable amount of time under physiological conditions. The assay capitalizes on the range of covalent binders by using a high affinity covalent binder as a probe to displace the more reversible binders in an adaptation of the jump dilution method.
In this version of the jump dilution method, the increase in covalent probe binding over time was measured through a TR-FRET reaction between the covalent probe and the biotinylated target protein.
(§1) The recombinant form of the DCN1 (DCUND1) protein PONY domain was produced using an E. coli expression system at Viva Biotech (China). The DCN1 protein was biotinylated (EZ sulfo-NHS-LC-biotin; Thermofisher) for labeling with streptavidin terbium (Tb) cryptate in the reaction. This biotinylated protein was used in two forms of the TR-FRET assay as described below.
The off-rate measurement is executed in two steps based on the jump dilution method. […] The greatest dilution allowed within the constraints of the assay was chosen. These factors allow a competitive advantage for the covalent probe to replace the test compound when that compound releases from the target protein. The actual measure is the rate of increased TR-FRET signal as the covalent probe replaces the test compound over time. […] The resulting time dependent curve of the TR-FRET signal is fit to the following equation: Y=Y0+(Plateau−Y0)*(1−exp(−K*x))
K is the rate constant (1/unit of time). The residence time is defined as the inverse of K, the rate constant. The half-life is calculated as ln(2)/K.

[4] = molecular target: T1, DCN1 (DCUND1) protein PONY domain; assay: TR-FRET with FAM probe (compound potency, potency of the Cy5 probe); assay type: binding; conditions: potency of the covalent Cy5 probe (P-1) to DCN1; read-out: Kd (EC50) of the Cy5 probe
Text: as §1
This version of the TR-FRET assay was used to measure compound potency to the target, specifically to measure the potency of the Cy5 probe (P-1). A non-covalent DCN1 inhibitor (Zhou et al., 2017) labeled with carboxyfluorescein (FAM) was used as the FRET acceptor probe. Displacement of the […], and thus decrease in the FRET signal, was indicative of compound activity on the target protein. Buffer conditions were optimized to enhance compound and protein stability (200 mM NaCl, 25 mM Tris, 0.5 mM DTT, 0.05% Tween20, 5% DMSO, 5% PEG-3350, pH 7.5) and concentrations of protein (0.31 nM) and probe (100 nM labeled, 800 nM unlabeled) were optimized for detection of potent molecules. The TR-FRET ratio between Tb-DCN1 and the FAM-labeled probe was measured in a 384-well opti-plate (Perkin Elmer) using a plate reader (BMG) at 1, 5, and 24 hrs after treatment with compound. The ratio was normalized to the high (DCN1 and FAM-probe) and low (DCN1 and no probe) controls for a readout of % activity (=100*(x−low)/(high−low)).

[5] = tested on: Cullin-3 (CUL3) neddylation; conditions: positive control, 1 μM; Zhou et al. Nature Comm. 2021; cited from earlier work
[6] = 24 hr after treatment with compound, read-out: TR FRET IC50 24 hr
[7] = read-out: TR FRET IC50 1 hr, 1 hr after treatment with compound

Chain of DCN2 (DCUND2) protein PONY domain (Q6PH85 60-248): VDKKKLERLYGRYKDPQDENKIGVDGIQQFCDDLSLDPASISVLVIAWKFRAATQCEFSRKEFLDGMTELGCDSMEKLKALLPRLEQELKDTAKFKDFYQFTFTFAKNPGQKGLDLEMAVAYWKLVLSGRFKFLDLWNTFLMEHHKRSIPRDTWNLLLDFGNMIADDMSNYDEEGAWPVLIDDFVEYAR

Compound | Ki [1] [nM] | kinact [1] [s⁻¹] | kinact/KI [1] [M⁻¹ s⁻¹] | IC50 [2, 6] [nM] | IC50 [2, 7] [nM] | Category [3] | IC50 ([2]; TR FRET IC50 1 hr (nM), 1 hr after treatment with compound) [nM] | EC50 [4] [nM] | effect on CUL3 neddylation [5]
C=C(CN1CCOCC1)C(=O)NC[C@@H](NC(=O)[C@H](Cc1nc2ccc(C(C)C)cc2s1)NC(=O)CC)C1CCCCC1 [Compound C1, reference compound] | 0.2 to 0.5 | 0.005 to 0.00833 | 8.33e+06 to 1.67e+07 | – | – | – | – | – | –
C=C(C(=O)NCc1cccc([C@@H]2c3cnn(-c4ccccc4)c3N(CC)C(=O)[C@H]2NC(=O)c2nccc(C(F)(F)F)n2)c1)[C@@H](C)N(C)C1COC1 [Compound I-300] | – | – | – | ≤ 200 | ≤ 200 | irreversible | – | – | –
C=C(C(=O)NCc1cccc([C@@H]2c3cnn(-c4ccccc4)c3N(CC)C(=O)[C@H]2NC(=O)c2csc(C(F)(F)F)n2)c1)C(C)N(C)C1COC1 (some centres unmarked) [Compound I-305] | > 0.5 | 0.005 to 0.00833 | 167000 to 3.33e+06 | ≤ 200 | ≤ 200 | irreversible | – | – | –
C/C=C(\CN1CCN(C2COC2)CC1)C(=O)Nc1cccc([C@@H]2c3cnn(-c4ccccc4)c3N(CC)C(=O)[C@H]2NC(=O)c2ccn(C(F)(F)F)n2)c1 [Compound I-383, N-((4R,5S)-7-ethyl-4-(3-((E)-2-((4-(oxetan-3-yl)piperazin-1-yl)methyl)but-2-enamido)phenyl)-6-oxo-1-phenyl-4,5,6,7-tetrahydro-1H-pyrazolo[3,4-b]pyridin-5-yl)-1-(trifluoromethyl)-1H-pyrazole-3-carboxamide] | > 0.5 | 0.00333 to 0.005 | 167000 to 3.33e+06 | ≤ 200 | – | irreversible | ≤ 200 | – | –
C=C(CN1CCOCC1)C(=O)Nc1cccc([C@@H]2c3cnn(-c4cccc(OCCCN5CCN(C(=O)CCCCCN6/C(=C/C=C/C=C/C7=[N+](C)c8ccc(S(=O)(=O)[O-])cc8C7(C)C)C(C)(C)c7cc(S(=O)(=O)O)ccc76)CC5)c4)c3N(CC)C(=O)[C@H]2NC(=O)c2cccc(C(F)(F)F)c2)c1 [Cy5 probe, 2-((1E,3E)-5-((E)-1-(6-(4-(3-(3-((4R,5S)-7-ethyl-4-(3-(2-(morpholinomethyl)acrylamido)phenyl)-6-oxo-5-(3-(trifluoromethyl)benzamido)-4,5,6,7-tetrahydro-1H-pyrazolo[3,4-b]pyridin-1-yl)phenoxy)propyl)piperazin-1-yl)-6-oxohexyl)-3,3-dimethyl-5-sulfoindolin-2-ylidene)penta-1,3-dien-1-yl)-1,3,3-trimethyl-3H-indol-1-ium-5-sulfonate] | – | – | – | – | – | – | – | 23.2 | –
C=C(CN1CCOCC1)C(=O)NC[C@@H](NC(=O)[C@H](Cc1nc2ccc(C(C)C)cc2s1)NC(=O)CC)C1CCCCC1 [DI-1548] | – | – | – | – | – | – | – | – | reduce CUL3 neddylation

Source: US12435087B2, “Modulators of DCN-1 and methods of use thereof” (Cellarity, Inc., priority 2023, dated 2025)
